IC50 data for 29 compounds are collected here from patent US8309718B2, “4-pyrazolyl-N-arylpyrimidin-2-amines and 4-pyrazolyl-N-heteroarylpyrimidin-2-amines as janus kinase inhibitors” (Incyte Corporation, priority 2007, dated 2012).

Structures are written as SMILES.

T1 sequence (O60674 828-1132): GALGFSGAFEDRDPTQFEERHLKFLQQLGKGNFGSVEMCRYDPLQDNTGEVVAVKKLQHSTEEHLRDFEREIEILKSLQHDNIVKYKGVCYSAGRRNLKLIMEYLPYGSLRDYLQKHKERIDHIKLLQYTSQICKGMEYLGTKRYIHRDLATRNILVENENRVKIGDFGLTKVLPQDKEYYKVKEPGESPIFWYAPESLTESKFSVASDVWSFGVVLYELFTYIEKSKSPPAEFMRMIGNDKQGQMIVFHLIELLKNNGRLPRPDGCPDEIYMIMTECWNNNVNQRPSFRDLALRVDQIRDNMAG

The assay concerns the target T1, human JAK2 (Homo sapiens, UniProt O60674).
T1 construct: JAK2 (a.a. 828-1132); His tag (N); made in house; host or cells: insect cells (baculovirus)
Kind of assay: In vitro JAK kinase assay (HTRF, phosphorylation of biotinylated peptide). In kind it is biochemical. The note with it: catalytic domain a.a. 828-1132, 30 μM ATP, 500 nM peptide, room temperature 1 hr; read-out: JAK-2 IC50. An outline of the steps:
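IC50 from HTRF detection (Eu-Py20 antibody, SA-APC) of biotinylated-peptide phosphorylation (500 nM), run 1 h at RT. Enzyme: N-His human JAK2 kinase domain a.a. 828-1132 from insect cells; ATP 30 μM; buffer 50 mM Tris pH 7.8 with NaCl, DTT, BSA.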
(In general: TR-FRET usually uses a lanthanide donor and a delayed reading to cut background.)
As to `Cc1cnc(Nc2ccccc2)nc1-c1cnn(C(CC#N)CC2CCN(C(=O)c3ccc(F)cc3F)CC2)c1` (racemic) [Example 66, 4-(1-(2,4-difluorobenzoyl)piperidin-4-yl)-3-(4-(5-methyl-2-(phenylamino)pyrimidin-4-yl)-1H-pyrazol-1-yl)butanenitrile], the IC50 was less than 100 nM.
On to `Cc1cnc(Nc2ccc(C(=O)N(C)C)cc2)nc1-c1cnn(C(CC#N)CC2CCN(S(=O)(=O)c3ccn(C)n3)CC2)c1` (racemic) [Example 67, 4-(4-(1-(1-cyano-3-(1-(1-methyl-1H-pyrazol-3-ylsulfonyl)piperidin-4-yl)propan-2-yl)-1H-pyrazol-4-yl)-5-methylpyrimidin-2-ylamino)-N,N-dimethylbenzamide], for which the IC50 was less than 100 nM.
Next, `Cc1cnc(Nc2ccc(C(=O)N(C)C)cc2)nc1-c1cnn(C(CC#N)CC2CCN(C(=O)c3ccc(F)cc3F)CC2)c1` (racemic) [Example 68, 4-(4-(1-(1-cyano-3-(1-(2,4-difluorobenzoyl)piperidin-4-yl)propan-2-yl)-1H-pyrazol-4-yl)-5-methylpyrimidin-2-ylamino)-N,N-dimethylbenzamide]: less than 100 nM; `CC(=O)Nc1ccc(Nc2ncc(C)c(-c3cnn(C(CC#N)CC4CCN(C(=O)c5ccc(F)cc5F)CC4)c3)n2)cc1` (racemic) [Example 69, N-(4-(4-(1-(1-cyano-3-(1-(2,4-difluorobenzoyl)piperidin-4-yl)propan-2-yl)-1H-pyrazol-4-yl)-5-methylpyrimidin-2-ylamino)phenyl)acetamide]: less than 100 nM; `Cc1cnc(Nc2ccc(C(N)=O)cc2)nc1-c1cnn(C(CC#N)C2CCCC2)c1` (racemic) [Example 70, 4-(4-(1-(2-cyano-1-cyclopentylethyl)-1H-pyrazol-4-yl)-5-methylpyrimidin-2-ylamino)benzamide]: less than 100 nM.
Under `Cc1cnc(Nc2ccc(-n3cccn3)cc2)nc1-c1cnn(C(CC#N)C2CCCC2)c1` (racemic) [Example 71, 3-(4-(2-(4-(1H-pyrazol-1-yl)phenylamino)-5-methylpyrimidin-4-yl)-1H-pyrazol-1-yl)-3-cyclopentylpropanenitrile] stands less than 100 nM; under `Cc1cnc(Nc2ccc(N3CCOCC3)cc2)nc1-c1cnn(C(CC#N)C2CCCC2)c1` (racemic) [Example 72, 3-cyclopentyl-3-(4-(5-methyl-2-(4-morpholinophenylamino)pyrimidin-4-yl)-1H-pyrazol-1-yl)propanenitrile], less than 100 nM.
Turning to `Cc1cnc(Nc2ccccc2)nc1-c1cnn(C(CC#N)C2CCCC2)c1` (racemic) [Example 73, 3-cyclopentyl-3-(4-(5-methyl-2-(phenylamino)pyrimidin-4-yl)-1H-pyrazol-1-yl)propanenitrile], the IC50 was less than 100 nM.
Under `Cc1cnc(Nc2ccc(-c3cnco3)cc2)nc1-c1cnn(C(CC#N)C2CCCC2)c1` (racemic) [Example 74, 3-cyclopentyl-3-(4-(5-methyl-2-(4-(oxazol-5-yl)phenylamino)pyrimidin-4-yl)-1H-pyrazol-1-yl)propanenitrile] stands less than 100 nM; under `COc1ccc(Nc2ncc(C)c(-c3cnn(C(CC#N)C4CCCC4)c3)n2)cc1` (racemic) [Example 75, 3-cyclopentyl-3-(4-(2-(4-methoxyphenylamino)-5-methylpyrimidin-4-yl)-1H-pyrazol-1-yl)propanenitrile], less than 100 nM.
Next, `CC(=O)Nc1ccc(Nc2ncc(C)c(-c3cnn(C(CC#N)C4CCCC4)c3)n2)cc1` (racemic) [Example 76, N-(4-(4-(1-(2-cyano-1-cyclopentylethyl)-1H-pyrazol-4-yl)-5-methylpyrimidin-2-ylamino)phenyl)acetamide]: less than 100 nM; `Cc1cnc(Nc2ccc(C(=O)N(C)C)cc2)nc1-c1cnn(C(CC#N)C2CCCC2)c1` (racemic) [Example 77, 4-(4-(1-(2-cyano-1-cyclopentylethyl)-1H-pyrazol-4-yl)-5-methylpyrimidin-2-ylamino)-N,N-dimethylbenzamide]: less than 100 nM.
Turning to `Cc1cnc(Nc2ccc(N3CCNCC3)cc2)nc1-c1cnn(C(CC#N)C2CCCC2)c1` (racemic) [Example 78, 3-cyclopentyl-3-(4-(5-methyl-2-(4-(piperazin-1-yl)phenylamino)pyrimidin-4-yl)-1H-pyrazol-1-yl)propanenitrile], the half-maximal inhibitory concentration (IC50) was less than 100 nM.
On to `CCN(CC)c1ccc(Nc2ncc(C)c(-c3cnn(C(CC#N)C4CCCC4)c3)n2)cc1` (racemic) [Example 79, 3-cyclopentyl-3-(4-(2-(4-(diethylamino)phenylamino)-5-methylpyrimidin-4-yl)-1H-pyrazol-1-yl)propanenitrile], for which the IC50 was less than 100 nM.
As for `CCN(CCCO)c1ccc(Nc2ncc(C)c(-c3cnn(C(CC#N)C4CCCC4)c3)n2)cc1` (racemic) [Example 80, 3-cyclopentyl-3-(4-(2-(4-(ethyl(3-hydroxypropyl)amino)phenylamino)-5-methylpyrimidin-4-yl)-1H-pyrazol-1-yl)propanenitrile], the IC50 is less than 100 nM.
Take `Cc1cnc(Nc2ccc(C(=O)O)cc2)nc1-c1cnn(C(CC#N)C2CCCC2)c1` (racemic) [Example 81, 4-(4-(1-(2-cyano-1-cyclopentylethyl)-1H-pyrazol-4-yl)-5-methylpyrimidin-2-ylamino)benzoic acid]: the IC50 was less than 100 nM.
Regarding `Cc1cnc(Nc2ccc([N+](=O)[O-])cc2)nc1-c1cnn(C(CC#N)C2CCCC2)c1` (racemic) [Example 82, 3-cyclopentyl-3-(4-(5-methyl-2-(4-nitrophenylamino)pyrimidin-4-yl)-1H-pyrazol-1-yl)propanenitrile], the half-inhibitory concentration (IC50) is less than 100 nM.
Under `Cc1cnc(Nc2ccc(C(=O)NCCO)cc2)nc1-c1cnn(C(CC#N)C2CCCC2)c1` (racemic) [Example 83, 4-(4-(1-(2-cyano-1-cyclopentylethyl)-1H-pyrazol-4-yl)-5-methylpyrimidin-2-ylamino)-N-(2-hydroxyethyl)benzamide] stands less than 100 nM; under `Cc1cnc(Nc2cccc(-c3cnco3)c2)nc1-c1cnn(C(CC#N)C2CCCC2)c1` (racemic) [Example 84, 3-cyclopentyl-3-(4-(5-methyl-2-(3-(oxazol-5-yl)phenylamino)pyrimidin-4-yl)-1H-pyrazol-1-yl)propanenitrile], less than 100 nM.
Next, `Cc1cnc(Nc2ccc(N)cc2)nc1-c1cnn(C(CC#N)C2CCCC2)c1` (racemic) [Example 85, 3-(4-(2-(4-aminophenylamino)-5-methylpyrimidin-4-yl)-1H-pyrazol-1-yl)-3-cyclopentylpropanenitrile]: less than 100 nM; `CNC(=O)c1ccc(Nc2ncc(C)c(-c3cnn(C(CC#N)C4CCCC4)c3)n2)cc1` (racemic) [Example 86, 4-(4-(1-(2-cyano-1-cyclopentylethyl)-1H-pyrazol-4-yl)-5-methylpyrimidin-2-ylamino)-N-methylbenzamide]: less than 100 nM.
Next, `Cc1cnc(Nc2ccc(C(=O)N3CCC(O)CC3)cc2)nc1-c1cnn(C(CC#N)C2CCCC2)c1` (racemic) [Example 88, 3-cyclopentyl-3-(4-(2-(4-(4-hydroxypiperidine-1-carbonyl)phenylamino)-5-methylpyrimidin-4-yl)-1H-pyrazol-1-yl)propanenitrile]: less than 100 nM.
Turning to `Cc1cnc(Nc2ccc(NS(C)(=O)=O)cc2)nc1-c1cnn(C(CC#N)C2CCCC2)c1` (racemic) [Example 89, N-(4-(4-(1-(2-cyano-1-cyclopentylethyl)-1H-pyrazol-4-yl)-5-methylpyrimidin-2-ylamino)phenyl)methanesulfonamide], the IC50 was less than 100 nM.
In the case of `COC(=O)Nc1ccc(Nc2ncc(C)c(-c3cnn(C(CC#N)C4CCCC4)c3)n2)cc1` (racemic) [Example 90, Methyl 4-(4-(1-(2-cyano-1-cyclopentylethyl)-1H-pyrazol-4-yl)-5-methylpyrimidin-2-ylamino)phenylcarbamate], the IC50 is less than 100 nM.
Consider `Cc1cnc(Nc2ccc(NC(=O)CN3CCCC3)cc2)nc1-c1cnn(C(CC#N)C2CCCC2)c1` (racemic) [Example 91, N-(4-(4-(1-(2-cyano-1-cyclopentylethyl)-1H-pyrazol-4-yl)-5-methylpyrimidin-2-ylamino)phenyl)-2-(pyrrolidin-1-yl)acetamide], for which the IC50 was less than 100 nM.
Under `N#CCC(CC1CCNCC1)n1cc(-c2ccnc(Nc3ccc(N4CCOCC4=O)cc3)n2)cn1` (racemic) [Example 92, 3-(4-(2-(4-(3-oxomorpholino)phenylamino)pyrimidin-4-yl)-1H-pyrazol-1-yl)-4-(piperidin-4-yl)butanenitrile] stands greater than 100 nM.
Under `CS(=O)(=O)N1CCC(CC(CC#N)n2cc(-c3ccnc(Nc4ccc(N5CCOCC5=O)cc4)n3)cn2)CC1` (racemic) [Example 95, 4-(1-(methylsulfonyl)piperidin-4-yl)-3-(4-(2-(4-(3-oxomorpholino)phenylamino)pyrimidin-4-yl)-1H-pyrazol-1-yl)butanenitrile] stands less than 100 nM; under `CCS(=O)(=O)N1CCC(CC(CC#N)n2cc(-c3ccnc(Nc4ccc(N5CCOCC5=O)cc4)n3)cn2)CC1` (racemic) [Example 96, 4-(1-(ethylsulfonyl)piperidin-4-yl)-3-(4-(2-(4-(3-oxomorpholino)phenylamino)pyrimidin-4-yl)-1H-pyrazol-1-yl)butanenitrile], less than 100 nM; under `N#CCC(CC1CCN(S(=O)(=O)C2CC2)CC1)n1cc(-c2ccnc(Nc3ccc(N4CCOCC4=O)cc3)n2)cn1` (racemic) [Example 97, 4-(1-(cyclopropylsulfonyl)piperidin-4-yl)-3-(4-(2-(4-(3-oxomorpholino)phenylamino)pyrimidin-4-yl)-1H-pyrazol-1-yl)butanenitrile], less than 100 nM.

As usually defined, the IC50 is the concentration that inhibits the measured activity by half.
